Measurements as given in patent US9505726B2, “Substituted biphenyl amides as P2X3 and P2X2/3 antagonists” (Roche Palo Alto LLC, priority 2009, dated 2016).

Molecular target: T1, rat P2X3 receptor (Rattus norvegicus, UniProt P49654)
T1 construct: expressed in transfected cells; host or cells: CHO-K1
T1 sequence (P49654 1-397): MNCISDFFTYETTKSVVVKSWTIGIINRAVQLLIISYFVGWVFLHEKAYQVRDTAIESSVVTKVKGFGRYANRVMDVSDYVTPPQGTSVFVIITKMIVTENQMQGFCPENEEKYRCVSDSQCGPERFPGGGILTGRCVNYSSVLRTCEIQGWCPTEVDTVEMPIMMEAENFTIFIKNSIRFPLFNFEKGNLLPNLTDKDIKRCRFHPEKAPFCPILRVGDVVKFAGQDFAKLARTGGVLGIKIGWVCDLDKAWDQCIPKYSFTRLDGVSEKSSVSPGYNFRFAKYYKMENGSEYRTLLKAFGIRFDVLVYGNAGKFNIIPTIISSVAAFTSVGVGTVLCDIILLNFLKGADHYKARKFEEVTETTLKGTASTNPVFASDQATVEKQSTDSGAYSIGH
Assay: P2X3 FLIPR (Fluorometric Imaging Plate Reader) assay
Type: cell-based
Details: CHO-K1 cells transfected with cloned rat P2X3, agonist α,β-meATP 1 μM, Fluo-3 AM calcium fluorescence
Procedure: CHO-K1 cells were transfected with cloned rat P2X3 or human P2X2/3 receptor subunits and passaged in flasks. 18-24 hours before the FLIPR experiment, cells were released from their flasks, centrifuged, and resuspended in nutrient medium at 2.5×10^5 cells/ml. The cells were aliquoted into black-walled 96-well plates at a density of 50,000 cells/well and incubated overnight in 5% CO2 at 37° C. On the day of the experiment, cells were washed in FLIPR buffer (calcium- and magnesium-free Hank's balanced salt solution, 10 mM HEPES, 2 mM CaCl2, 2.5 mM probenecid; FB). Each well received 100 μl FB and 100 μl of the fluorescent dye Fluo-3 AM [2 μM final conc.]. After a 1 hour dye loading incubation at 37° C., the cells were washed 4 times with FB, and a final 75 μl/well FB was left in each well.
Test compounds (dissolved in DMSO at 10 mM and serially diluted with FB) or vehicle were added to each well (25 μl of a 4× solution) and allowed to equilibrate for 20 minutes at room temperature. The plates were then placed in the FLIPR and a baseline fluorescence measurement (excitation at 488 nm and emission at 510-570 nm) was obtained for 10 seconds before a 100 μl/well agonist or vehicle addition. The agonist was a 2X solution of α,β-meATP producing a final concentration of 1 μM (P2X3) or 5 μM (P2X2/3). Fluorescence was measured for an additional 2 minutes at 1 second intervals after agonist addition. A final addition of ionomycin (5 μM, final concentration) was made to each well of the FLIPR test plate to establish cell viability and maximum fluorescence of dye-bound cytosolic calcium. Peak fluorescence in response to the addition of α,β-meATP (in the absence and presence of test compounds) was measured and inhibition curves generated using nonlinear regression. PPADS, a standard P2X antagonist, was used as a positive control.

Compound | P2X3 (pIC50 values for the P2X3 receptor) | IC50 (read-out: P2X3 (pIC50 values for the P2X3 receptor) (converted)) [nM]
CCN(C(=O)c1cccnc1)c1cc(C(=O)NC(C)c2cnccn2)cc(-c2ccc(C)cc2)c1 (stereo not shown) [Compound 31, N-Ethyl-N-[4′-methyl-5-(1-pyrazin-2-yl-ethylcarbamoyl)-biphenyl-3-yl]-nicotinamide] | 5.91 | 
Cc1ccc(-c2cc(C(=O)NC(C)c3cnccn3)cc(N(C)C(=O)C(C)(C)C)c2)cc1 (stereo not shown) [Compound 32, 5-[(2,2-Dimethyl-propionyl)-methyl-amino]-4′-methyl-biphenyl-3-carboxylic acid (1-pyrazin-2-yl-ethyl)-amide] | 8.01 | 
Cc1ccc(-c2cc(C(=O)NC(C)c3cnccn3)cc(N(C)C(=O)C3CC3)c2)cc1 (stereo not shown) [Compound 34, 5-(Cyclopropanecarbonyl-methyl-amino)-4′-methyl-biphenyl-3-carboxylic acid (1-pyrazin-2-yl-ethyl)-amide] |  | 10.7
CCN(C(=O)OCC(C)C)c1cc(C(=O)NC(C)c2cnccn2)cc(-c2ccc(C)cc2)c1 (stereo not shown) [Compound 35, Ethyl-[4′-methyl-5-(1-pyrazin-2-yl-ethylcarbamoyl)-biphenyl-3-yl]-carbamic acid isobutyl ester] | 6.82 | 
CCN(C(=O)OC)c1cc(C(=O)NC(C)c2cnccn2)cc(-c2ccc(C)cc2)c1 (stereo not shown) [Compound 39, Ethyl-[4′-methyl-5-(1-pyrazin-2-yl-ethylcarbamoyl)-biphenyl-3-yl]-carbamic acid methyl ester] | 7.28 | 

The remaining lines, values ahead:

P2X3 (pIC50 values for the P2X3 receptor) | IC50 (read-out: P2X3 (pIC50 values for the P2X3 receptor) (converted)) [nM] | Compound
5.4 |  | CCN(C(=O)c1ccncc1)c1cc(C(=O)NC(C)COC)cc(-c2ccc(C)cc2)c1 (stereo not shown) [Compound 28, N-Ethyl-N-[5-(2-methoxy-1-methyl-ethylcarbamoyl)-4′-methyl-biphenyl-3-yl]-isonicotinamide]
7.38 |  | CCN(C(=O)CC(C)C)c1cc(C(=O)NC(C)c2cnccn2)cc(-c2ccc(C)cc2)c1 (stereo not shown) [Compound 29, 5-[Ethyl-(3-methyl-butyryl)-amino]-4′-methyl-biphenyl-3-carboxylic acid (1-pyrazin-2-yl-ethyl)-amide]
7.33 |  | CCN(C(=O)CC(C)C)c1cc(C(=O)NC(C)CO)cc(-c2ccc(C)cc2)c1 (stereo not shown) [Compound 30, 5-[Ethyl-(3-methyl-butyryl)-amino]-4′-methyl-biphenyl-3-carboxylic acid (2-hydroxy-1-methyl-ethyl)-amide]
8.3 |  | Cc1ccc(-c2cc(C(=O)NC(C)c3cnccn3)cc(N(C)C(=O)C(C)C)c2)cc1 (stereo not shown) [Compound 33, 5-(Isobutyryl-methyl-amino)-4′-methyl-biphenyl-3-carboxylic acid (1-pyrazin-2-yl-ethyl)-amide]
5.3 |  | Cc1ccc(-c2cc(C(=O)NC(C)c3cnccn3)cc(N(C)C(=O)c3snnc3C)c2)cc1 (stereo not shown) [Compound 36, 4-Methyl-[1,2,3]thiadiazole-5-carboxylic acid methyl-[4′-methyl-5-(1-pyrazin-2-yl-ethylcarbamoyl)-biphenyl-3-yl]-amide]
8.11 |  | CCN(C(=O)C(C)C)c1cc(C(=O)NC(C)c2cnccn2)cc(-c2ccc(C)cc2)c1 (stereo not shown) [Compound 38, 5-(Ethyl-isobutyryl-amino)-4′-mcthyl-biphenyl-3-carboxylic acid (1-pyrazin-2-yl-ethyl)-amide]
8.3 |  | Cc1ccc(-c2cc(C(=O)N[C@@H](C)CO)cc(N(C)C(=O)C(C)C)c2)cc1 [Compound 40, 5-(Isobutyryl-methyl-amino)-4′-methyl-biphenyl-3-carboxylic acid ((S)-2-hydroxy-1-methyl-ethyl)-amide]
6.86 |  | CCN(C(=O)C1CCOCC1)c1cc(C(=O)NC(C)c2cnccn2)cc(-c2ccc(C)cc2)c1 (stereo not shown) [Compound 41, Tetrahydro-pyran-4-carboxylic acid ethyl-[4′-methyl-5-(1-pyrazin-2-yl-ethylcarbamoyl)-biphenyl-3-yl]-amide]
